This is an account of results in US20060166934A1, “Composition comprising phytosphingosine derivatives for apoptosis induction” (Tae-Yoon Kim, priority 2002, published 2006).

Data set [1] in a line: MTT assay, cytotoxicity in HUVEC. Conditions: human. The format is cell-based, human. A digest of the protocol: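 Primary HUVEC cultured from human umbilical vein; cells in serum-free medium were exposed to phytosphingosine derivatives at final 1–100 μM for 24 h. Viability by MTT (2 mg/ml, 4 h), formazan dissolved in DMSO and read at O.D. 540 nm; C2-ceramide run for comparison.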

Data set [2] can be described thus: MTT assay, cytotoxicity in human skin cancer cell line. In kind it is cell-based. The conditions noted are these: human, Cell viability. A digest of the protocol: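 A431 cells were seeded in serum-free medium and, about 3 h later, treated 24 h with phytosphingosine derivatives at final 1–100 μM (DMSO vehicle). MTT (2 mg/ml) was then added for 4 h, and the formazan was dissolved in DMSO and read at 540 nm for viability. C2-ceramide served as comparator.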

The next data set relates to HaCaT cells. In words: MTT assay, combined treatment with UVB irradiation. The format is cell-based, human. More on the design: Cell viability: unit not given here. The conditions noted are these: for cytotoxicity: 10 μM only; for Cell viability: HaCaT. The protocol:
In order to study the synergistic effect in the cytotoxicity by the cotreatment with administration of the compositions of the present invention and with UVB irradiation, the cell viability is analyzed by MTT assay method in HaCaT cells. On a 100-mm dish, 1×10^6 HaCaT cells are seeded and cultured in DMEM containing 10% fetal bovine serum, 100 units/ml penicillin, and 100 μg/ml streptomycin for 48 hours. They are treated with trypsin, and 1-2×10^4 cells per well are seeded on a 96-well plate again by using a serum-free medium, which is removed after about 3 hours. HaCaT cells are washed with PBS three times, and 3.5 ml of PBS per plate is added. It is then irradiated with 200 J/m^2 of UVB. After irradiation, the medium is replaced with a DMEM medium. Then it is treated with the phytosphingosine derivatives of the present invention, and cultured for 24 hours. After 2 mg/ml of the MTT reagent is added, it is cultured for 4 hours. The medium is removed completely, the cells are suspended in DMSO, and O.D. is measured at 540 nm.

The nature of data set [3]: MTT assay, cytotoxicity in human keratinocyte cell line. Conditions: human, Cell viability. The format is cell-based. In short, it runs like this:
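HaCaT keratinocytes, 1-2×10^4 cells per well in serum-free medium, treated 24 h with phytosphingosine derivatives (1-100 μM, DMSO vehicle). Viability by MTT (2 mg/ml, 4 h), formazan dissolved in DMSO, O.D. read at 540 nm.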

A further data set concerns apoptosis-related genes. In words: Apoptosis array kit, gene expression. The format is cell-based. The conditions noted are these: 30 μM, 24 hours, FIG. 10. The protocol: Firstly, in order to look into the genes involved in apoptosis induced by the compositions of the present invention, TAPS is treated at the dose of 30 μM for 24 hours, from which mRNA is isolated. Then it is observed by using an apoptosis array kit.
The labeled cDNA is synthesized by using apoptosis-specific primers offered by Human Apoptosis Expression Assay (R&D System, Minneapolis, Minn.), which is used for a probe in incubation with 2 μg of the total RNA at 65° C. overnight. It is then washed with Washing Solution I (0.5×SSPE, 1% (w/v) SDA) three times at a room temperature and with Washing Solution II ([…]) for 1 hour at 65° C. The washed membranes are exposed to X-ray films at […], and developed.

For the next data set, the system named is p53. In words: Immunoblot analysis of p53. The format is cell-based, human. Conditions: 30 μM, FIG. 12. As to the method: (§1) In the confirmation of apoptosis-related proteins, the immunoblot analysis is performed in order to look into the effects of the compositions of the present invention on the expression of caspase-3, p53, and Chk1 proteins related to the induction of apoptosis. HaCaT cells are cultured on a 100-mm dish and collected at the indicative time. The proteins are extracted by adding 500 μl of RIPA lysis buffer (1% Nonidet P-40, 1% sodium deoxycholate, 0.1% SDS, […], 0.01 M sodium phosphate, pH 7.2, 2 mM EDTA, 50 mM sodium fluoride and 0.2 mM sodium vanadate), and the concentration is measured by using the Bradford method. 1 Extracted proteins is electrophoresed on 12% polyacrylamide gel, and they are transferred to the nitrocellulose membrane. The membrane blocked with 5% non-fat milk is reacted with the primary antibodies (caspase-3, p53, and Chk1), washed, and reacted with the secondary HRP-conjugated antibody. The intensity of proteins is analyzed by using the ECL kit.

Another data set has as its system Chk1. In words: Immunoblot analysis of Chk1. In kind it is cell-based, human. Conditions: 30 μM, FIGS. 12 and 13. The protocol:
as §1

As to `CCCCCCCCCCCCCC[C@@H](O)[C@@H](O)[C@H](CO)NC(C)=O` [NAPS, N-acetyl phytosphingosine], in data set [1], the viability at 24 h, 3.5 µM is 66 ± 7.5%; the viability at 24 h, 7 µM stood at 51 ± 10.5%; the viability at 24 h, 15 µM came out at 19 ± 3.4%; the viability at 24 h, 30 µM turned out to be 14 ± 0.6%. Also, in data set [2], the viability at 24 h, 3 µM was 100 ± 10.2%; the viability at 24 h, 10 µM was 75 ± 6.9%; the viability at 24 h, 30 µM turned out to be 31 ± 10%; the viability at 24 h, 50 µM was 1 ± 0.2%. In addition, the cytotoxicity with HaCaT cells (no UVB) came out at 33%. In data set [3], the viability at 24 h, 1 µM was determined as 103 ± 6.9%; the viability at 24 h, 3 µM was determined as 99 ± 3.5%; the viability at 24 h, 10 µM was found to be 86 ± 2.1%; the viability at 24 h, 30 µM amounted to 17 ± 0.8%.
In the case of tetraacetyl phytosphingosine [TAPS], in the data set with apoptosis-related genes, the “expression of Bcl-10” value was “increased”. The “expression of COX-2 gene” value in the data set on apoptosis-related genes is “increased”. In the data set on apoptosis-related genes, the “expression of IL-1β” value is given as “increased”. For the same molecule, the “expression of Mcl-1” value in the data set with apoptosis-related genes was “increased”. Besides, the “expression of PIN gene” value with apoptosis-related genes is given as “increased”. The “expression of p21” value with apoptosis-related genes was “increased”. The “expression of p53 gene” value with apoptosis-related genes is on record as “decreased”. The expression of survivin result with apoptosis-related genes is on record as “reduced”. For the same molecule, the p53 protein result with p53 (at 8-hour) was “not changed greatly”; in the data set with p53 (at 24 hour), “rapid reduction”. Moreover, the results for the Chk1 protein entry in the data set with Chk1 (at 8-hour) and in the data set with Chk1 (at 24 hour) were “not changed greatly” and “rapid reduction”, respectively. Further, the Cell viability is 27 ± 7.1 in the data set on HaCaT cells (1 μM + UVB 200 J/m^2, 24 hours); 111 ± 7.0 with HaCaT cells (1 μM, no UVB, 24 hours); 27 ± 3.9 in the data set with HaCaT cells (3 μM + UVB 200 J/m^2, 24 hours); 97 ± 10.0 in the data set on HaCaT cells (3 μM, no UVB, 24 hours); 16 ± 3.2 in the data set on HaCaT cells (5 μM + UVB 200 J/m^2, 24 hours); 83 ± 8.0 in the data set with HaCaT cells (5 μM, no UVB, 24 hours). Besides, the Cell viability is 2 ± 0.1 with HaCaT cells (10 μM + UVB 200 J/m^2, 24 hours) and 43 ± 4.0 in the data set with HaCaT cells (10 μM, no UVB, 24 hours). Further, in the data set with HaCaT cells (no UVB), the cytotoxicity is 57%.
